Experimental data reported in ChEMBL document CHEMBL2321762, “Design, synthesis, and SAR of N-((1-(4-(propylsulfonyl)piperazin-1-yl)cycloalkyl)methyl)benzamide inhibitors of glycine transporter-1” (Bioorg Med Chem Lett, 2013).
The source made the active and inactive calls. The calls are words filed in the database; no cut-off is given here.

Key:
[1] = target: T1, Sodium- and chloride-dependent glycine transporter 1 (Homo sapiens, UniProt P48067); assay: Inhibition of GlyT1a in human JAR cells assessed as inhibition of [3H]glycine uptake by scintillation proximity assay; assay type: cell-based
T1 sequence (P48067 whole entry): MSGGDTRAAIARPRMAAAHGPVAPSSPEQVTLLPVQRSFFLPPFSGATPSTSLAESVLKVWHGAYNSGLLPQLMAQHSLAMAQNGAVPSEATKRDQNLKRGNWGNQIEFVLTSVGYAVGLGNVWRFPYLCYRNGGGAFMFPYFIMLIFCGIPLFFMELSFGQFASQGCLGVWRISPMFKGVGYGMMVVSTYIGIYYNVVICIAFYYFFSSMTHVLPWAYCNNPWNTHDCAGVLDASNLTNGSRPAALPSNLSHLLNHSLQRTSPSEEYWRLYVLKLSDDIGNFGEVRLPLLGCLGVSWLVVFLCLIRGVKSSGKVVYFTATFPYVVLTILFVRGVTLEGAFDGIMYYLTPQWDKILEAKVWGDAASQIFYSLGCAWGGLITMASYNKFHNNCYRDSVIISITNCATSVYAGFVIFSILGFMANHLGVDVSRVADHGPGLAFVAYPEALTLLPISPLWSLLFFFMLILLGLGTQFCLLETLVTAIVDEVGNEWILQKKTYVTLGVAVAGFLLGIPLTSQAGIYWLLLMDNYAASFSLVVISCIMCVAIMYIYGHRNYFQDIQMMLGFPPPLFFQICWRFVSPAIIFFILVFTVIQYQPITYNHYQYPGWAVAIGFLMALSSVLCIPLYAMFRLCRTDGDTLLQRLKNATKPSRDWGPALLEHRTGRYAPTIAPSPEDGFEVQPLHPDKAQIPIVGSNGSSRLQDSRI

[2] = target: T2, Sodium- and chloride-dependent glycine transporter 2 (Homo sapiens, UniProt Q9Y345); assay: Inhibition of human GlyT2 expressed in HEK293 cells assessed as inhibition of [3H]glycine uptake by scintillation proximity assay; assay type: cell-based
T2 sequence (Q9Y345 whole entry): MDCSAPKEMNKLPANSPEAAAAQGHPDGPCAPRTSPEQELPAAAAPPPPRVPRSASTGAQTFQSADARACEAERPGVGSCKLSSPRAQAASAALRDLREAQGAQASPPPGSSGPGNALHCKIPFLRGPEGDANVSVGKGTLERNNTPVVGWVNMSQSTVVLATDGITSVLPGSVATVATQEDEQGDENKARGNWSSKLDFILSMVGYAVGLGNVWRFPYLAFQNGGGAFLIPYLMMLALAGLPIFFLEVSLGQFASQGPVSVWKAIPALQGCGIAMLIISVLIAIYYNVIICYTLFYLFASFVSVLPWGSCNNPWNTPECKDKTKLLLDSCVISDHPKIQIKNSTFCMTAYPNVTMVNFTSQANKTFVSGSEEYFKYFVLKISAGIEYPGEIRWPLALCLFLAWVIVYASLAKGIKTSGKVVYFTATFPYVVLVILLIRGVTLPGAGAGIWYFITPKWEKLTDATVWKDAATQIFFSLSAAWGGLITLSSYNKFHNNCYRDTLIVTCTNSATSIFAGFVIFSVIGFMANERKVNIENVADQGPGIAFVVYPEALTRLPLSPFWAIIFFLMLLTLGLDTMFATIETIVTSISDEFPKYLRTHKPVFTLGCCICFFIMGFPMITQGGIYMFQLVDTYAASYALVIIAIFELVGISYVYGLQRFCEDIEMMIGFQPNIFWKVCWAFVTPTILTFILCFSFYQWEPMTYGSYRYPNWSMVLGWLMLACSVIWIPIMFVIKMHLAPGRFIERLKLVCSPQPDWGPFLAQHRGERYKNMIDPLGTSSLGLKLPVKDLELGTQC

[3] = Metabolic stability in human liver microsomes assessed as compound remaining at 10 uM after 60 mins; assay type: ADME, Microsome; conditions: read-out: Stability
Cytochrome P450 3A4 = Cytochrome P450 3A4 (Homo sapiens, UniProt P08684); assay: Inhibition of CYP3A4 (unknown origin); assay type: ADME
Rattus norvegicus [4] = assay: Antischizophrenic activity in po dosed rat assessed as increased glycine level in CSF after 30 mins relative to control; assay type: functional, organism-based
Rattus norvegicus [5] = assay: Antischizophrenic activity in rat assessed as increased glycine level in CSF at 30 to 75 mg/kg, po after 30 mins relative to control; assay type: functional, organism-based
[6] = Total plasma clearance in rat at 2 mg/kg, iv and 10 mg/kg, po; assay type: ADME, organism-based
[7] = Cmax in rat at 2 mg/kg, iv and 10 mg/kg, po; assay type: ADME, organism-based; conditions: in vivo
[8] = Plasma protein binding in human; assay type: ADME, cell-free; conditions: read-out: PPB (converted)
[9] = Terminal half life in rat at 2 mg/kg, iv and 10 mg/kg, po; assay type: ADME, organism-based; conditions: in vivo, read-out: beta t1/2 (converted)
Cytochrome P450 2D6 = Cytochrome P450 2D6 (Homo sapiens, UniProt P10635); assay: Inhibition of CYP2D6 (unknown origin); assay type: ADME
Salmonella typhimurium [10] = assay: Mutagenicity against Salmonella typhimurium TA98 by mini-AMES test in presence of rat S9 fraction; assay type: toxicity, organism-based; conditions: salmonella enterica subsp. enterica serovar typhimurium
[11] = Drug uptake in po dosed rat CSF after 30 mins; assay type: ADME, organism-based, Cerebrospinal fluid; conditions: in vivo, 0.5 h
[12] = Intrinsic clearance in rat liver microsomes at 1 uM; assay type: ADME, Microsome; conditions: read-out: CLH
Salmonella typhimurium [13] = assay: Mutagenicity against Salmonella typhimurium TA100 by mini-AMES test in presence of rat S9 fraction; assay type: toxicity, organism-based; conditions: salmonella enterica subsp. enterica serovar typhimurium
[14] = Volume of distribution at steady state in rat at 2 mg/kg, iv and 10 mg/kg, po; assay type: ADME, organism-based; conditions: in vivo, read-out: Vdss
[15] = Plasma protein binding in rat; assay type: ADME, cell-free; conditions: read-out: PPB (converted)
[16] = Oral bioavailability in rat at 10 mg/kg; assay type: ADME, organism-based; conditions: in vivo
[17] = AUC (0 to infinity) in rat at 2 mg/kg, iv and 10 mg/kg, po; assay type: ADME, organism-based; conditions: plasma
[18] = Tmax in rat at 2 mg/kg, iv and 10 mg/kg, po; assay type: ADME, organism-based; conditions: in vivo
Salmonella typhimurium [19] = assay: Mutagenicity against Salmonella typhimurium TA98 by mini-AMES test in absence of rat S9 fraction; assay type: toxicity, organism-based; conditions: salmonella enterica subsp. enterica serovar typhimurium
[20] = Ratio of drug uptake in brain to plasma in rat at 10 to 75 mg/kg, po after 30 mins; assay type: ADME, organism-based; parameters: dose 10-75 mg/kg, route oral; conditions: read-out: BPR
[21] = Intrinsic clearance in human liver microsomes at 1 uM; assay type: ADME, Microsome; conditions: read-out: CLH
Cytochrome P450 2C9 = Cytochrome P450 2C9 (Homo sapiens, UniProt P11712); assay: Inhibition of CYP2C9 (unknown origin); assay type: ADME
Cytochrome P450 2C19 = Cytochrome P450 2C19 (Homo sapiens, UniProt P33261); assay: Inhibition of CYP2C19 (unknown origin); assay type: ADME
Salmonella typhimurium [22] = assay: Mutagenicity against Salmonella typhimurium TA100 by mini-AMES test in absence of rat S9 fraction; assay type: toxicity, organism-based; conditions: salmonella enterica subsp. enterica serovar typhimurium

Chain of Cytochrome P450 2C9 (P11712 whole entry): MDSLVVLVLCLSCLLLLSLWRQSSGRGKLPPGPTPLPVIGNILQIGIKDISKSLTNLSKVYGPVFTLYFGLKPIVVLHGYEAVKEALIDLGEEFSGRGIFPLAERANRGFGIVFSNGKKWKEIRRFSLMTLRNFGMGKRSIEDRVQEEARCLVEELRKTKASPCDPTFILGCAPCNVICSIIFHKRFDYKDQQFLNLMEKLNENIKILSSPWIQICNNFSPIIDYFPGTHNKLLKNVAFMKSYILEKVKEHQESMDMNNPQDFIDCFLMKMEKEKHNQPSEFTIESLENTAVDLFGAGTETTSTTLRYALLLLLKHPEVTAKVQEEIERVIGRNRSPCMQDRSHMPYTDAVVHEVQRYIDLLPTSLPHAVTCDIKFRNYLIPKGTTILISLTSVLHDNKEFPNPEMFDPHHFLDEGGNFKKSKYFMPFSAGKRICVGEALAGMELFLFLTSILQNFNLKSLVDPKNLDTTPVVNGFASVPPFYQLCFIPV
Chain of Cytochrome P450 2D6 (P10635 whole entry): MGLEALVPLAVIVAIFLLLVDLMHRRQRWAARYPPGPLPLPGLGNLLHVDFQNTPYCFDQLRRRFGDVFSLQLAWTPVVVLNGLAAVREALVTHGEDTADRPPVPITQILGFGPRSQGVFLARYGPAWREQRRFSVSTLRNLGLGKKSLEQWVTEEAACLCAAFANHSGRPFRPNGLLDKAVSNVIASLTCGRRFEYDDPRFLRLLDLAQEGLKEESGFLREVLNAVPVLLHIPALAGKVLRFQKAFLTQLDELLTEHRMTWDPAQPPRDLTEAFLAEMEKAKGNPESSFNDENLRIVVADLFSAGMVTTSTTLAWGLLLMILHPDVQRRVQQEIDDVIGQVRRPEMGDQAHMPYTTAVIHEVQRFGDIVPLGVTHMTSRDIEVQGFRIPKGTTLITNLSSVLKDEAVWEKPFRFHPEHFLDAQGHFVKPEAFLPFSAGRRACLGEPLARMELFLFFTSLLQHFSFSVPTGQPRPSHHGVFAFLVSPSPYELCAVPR
Chain of Cytochrome P450 2C19 (P33261 whole entry): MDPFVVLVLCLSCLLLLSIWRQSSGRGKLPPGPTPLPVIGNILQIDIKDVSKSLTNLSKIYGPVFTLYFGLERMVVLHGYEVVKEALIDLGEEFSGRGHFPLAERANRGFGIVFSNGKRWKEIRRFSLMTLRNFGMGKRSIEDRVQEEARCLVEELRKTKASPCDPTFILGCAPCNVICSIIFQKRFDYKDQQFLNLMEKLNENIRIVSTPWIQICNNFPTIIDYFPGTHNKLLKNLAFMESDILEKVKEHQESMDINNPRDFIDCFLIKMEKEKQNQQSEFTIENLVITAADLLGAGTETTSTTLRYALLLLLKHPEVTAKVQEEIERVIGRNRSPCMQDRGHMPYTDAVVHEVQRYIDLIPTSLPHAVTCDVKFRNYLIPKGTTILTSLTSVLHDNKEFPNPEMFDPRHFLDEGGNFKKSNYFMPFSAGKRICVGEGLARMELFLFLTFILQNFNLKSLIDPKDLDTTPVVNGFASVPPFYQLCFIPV
Chain of Cytochrome P450 3A4 (P08684 whole entry): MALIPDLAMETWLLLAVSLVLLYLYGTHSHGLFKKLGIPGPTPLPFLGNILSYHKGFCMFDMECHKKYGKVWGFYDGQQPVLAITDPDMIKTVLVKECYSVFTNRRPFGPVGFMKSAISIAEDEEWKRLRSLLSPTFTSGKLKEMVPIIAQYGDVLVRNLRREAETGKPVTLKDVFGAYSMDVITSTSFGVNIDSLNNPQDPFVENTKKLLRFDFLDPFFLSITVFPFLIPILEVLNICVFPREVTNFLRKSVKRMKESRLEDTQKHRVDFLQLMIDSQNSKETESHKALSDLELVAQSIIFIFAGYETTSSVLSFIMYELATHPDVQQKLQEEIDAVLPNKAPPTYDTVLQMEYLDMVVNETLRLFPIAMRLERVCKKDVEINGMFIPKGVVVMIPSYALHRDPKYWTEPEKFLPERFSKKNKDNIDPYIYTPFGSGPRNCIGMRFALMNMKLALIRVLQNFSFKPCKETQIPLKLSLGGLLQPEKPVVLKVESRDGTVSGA

Work on `CCCS(=O)(=O)N1CCN(C2(CNC(=O)c3cccc(C(F)(F)F)c3Cl)CCCCC2)CC1` yielded an IC50 [1] of 77.9 nM, an IC50 [2] of over 75000 nM and a remaining at 1 h, 10 µM [3] of 1%.

In the case of `CCCS(=O)(=O)N1CCN(C2(CNC(=O)c3cccc(C(F)(F)F)c3)CCCCC2)CC1`, the IC50 [1] is reported as 523 nM and the IC50 [2] is reported as over 75000 nM.

For `CCCS(=O)(=O)N1CCN(C2(CNC(=O)c3c(N)cccc3Cl)CCCCC2)CC1`, the IC50 [1] was 15.1 nM, the IC50 [2] was over 75000 nM and the remaining at 1 h, 10 µM [3] was 29%.

With `CCCS(=O)(=O)N1CCN(C2(CNC(=O)c3c(F)cccc3F)C[C@H]3C[C@H]3C2)CC1` (mixture of isomers) the IC50 [1] was 621 nM.

For `CCCS(=O)(=O)N1CCN(C2(CNC(=O)c3c(F)cccc3F)CCC(F)(F)CC2)CC1`, the IC50 (Cytochrome P450 3A4) was over 10000 nM, the Activity (Rattus norvegicus [4]) was “Dose-dependent effect” and the Activity (Rattus norvegicus [5]) was “Active”. For the same compound, the clearance [6] was 22 mL/min/kg, the Cmax [7] was 486 ng/mL and the fraction unbound [8] was 0.13. The half-life [9] was 2.9 h, the IC50 (Cytochrome P450 2D6) was over 10000 nM and the Activity (Salmonella typhimurium [10]) was “Non-toxic”. The Drug uptake [11] was “Dose-dependent effect”, the microsomal CLint at 1 µM [12] was 5.5 µL/min/mg and the Activity (Salmonella typhimurium [13]) was “Non-toxic”. The Vd [14] was 3.26 L/kg, the remaining at 1 h, 10 µM [3] was 64% and the fraction unbound [15] was 0.16. It also gave a bioavailability [16] of 25.7%, an AUC(0-inf) [17] of 2000 ng·h/mL and a Tmax [18] of 1.5 h. The Activity (Salmonella typhimurium [19]) was “Non-toxic”, the Kp at 0.5 h [20] was 0.13 and the microsomal CLint at 1 µM [21] was 13 µL/min/mg. For the same compound, the IC50 (Cytochrome P450 2C9) was over 10000 nM, the IC50 (Cytochrome P450 2C19) was over 10000 nM and the Activity (Salmonella typhimurium [22]) was “Non-toxic”.

With `CCCS(=O)(=O)N1CCN(C2(CNC(=O)c3c(F)cccc3F)CCCCC2)CC1` the IC50 [2] was over 75000 nM and the remaining at 1 h, 10 µM [3] was 16%.

For `CCCS(=O)(=O)N1CCN(C2(CNC(=O)c3ccccc3C(F)(F)F)CCCCC2)CC1`, the remaining at 1 h, 10 µM [3] was 5%.

With `CCCS(=O)(=O)N1CCN(C2(CNC(=O)c3ccc(Cl)cc3Cl)CCOCC2)CC1` the IC50 [1] was 500 nM and the remaining at 1 h, 10 µM [3] was 100%.

`CCCS(=O)(=O)N1CCN(C2(CNC(=O)c3ccc(Cl)cc3Cl)CCCCC2)CC1` gave an IC50 [1] of 22.7 nM, an IC50 [2] of over 75000 nM and a remaining at 1 h, 10 µM [3] of 11%.

For `CCCS(=O)(=O)N1CCN(C2(CNC(=O)c3ccc(Cl)cc3)CCCCC2)CC1`, the IC50 [1] was 175 nM, the IC50 [2] was over 75000 nM and the remaining at 1 h, 10 µM [3] was 4%.

With `CCCS(=O)(=O)N1CCN(C2(CNC(=O)c3c(Cl)cccc3Cl)CCCCC2)CC1` the IC50 [1] was 12.8 nM, the IC50 [2] was over 75000 nM and the remaining at 1 h, 10 µM [3] was 3%.

Work on `CCCS(=O)(=O)N1CCN(C2(CNC(=O)c3c(OC)cc(F)cc3SC)CCCCC2)CC1` yielded an IC50 [1] of 6.1 nM and a remaining at 1 h, 10 µM [3] of 1%.

Compound `CCCS(=O)(=O)N1CCN(C2(CNC(=O)c3ccc(F)cc3C)CCCCC2)CC1` has an IC50 [2] of over 75000 nM and a remaining at 1 h, 10 µM [3] of 2%.

Compound `CCCS(=O)(=O)N1CCN(C2(CNC(=O)c3c(OC)cc(C(F)(F)F)cc3C(F)(F)F)CCCCC2)CC1` has an IC50 [1] of 4.4 nM, an IC50 [2] of over 75000 nM and a remaining at 1 h, 10 µM [3] of 10%.

`CCCS(=O)(=O)N1CCN(C2(CNC(=O)c3ccc(OC)cc3F)CCCCC2)CC1` showed an IC50 [1] of 17.1 nM, an IC50 [2] of over 75000 nM and a remaining at 1 h, 10 µM [3] of 4%.

`CCCS(=O)(=O)N1CCN(C2(CNC(=O)c3ccccc3OC(F)(F)F)CCCCC2)CC1` showed an IC50 [2] of over 75000 nM and a remaining at 1 h, 10 µM [3] of 2%.

In the case of `CCCS(=O)(=O)N1CCN(C2(CNC(=O)c3c(N)cccc3Cl)CCN(C)CC2)CC1`, the remaining at 1 h, 10 µM [3] is reported as 40%.

Compound `CCCS(=O)(=O)N1CCN(C2(CNC(=O)c3ccc(OC(F)(F)F)cc3)CCCCC2)CC1` has an IC50 [2] of over 75000 nM and a remaining at 1 h, 10 µM [3] of 11%.

Compound `CCCS(=O)(=O)N1CCN(C2(CNC(=O)c3ccc(Cl)c(Cl)c3)CCCCC2)CC1` has an IC50 [2] of over 75000 nM and a remaining at 1 h, 10 µM [3] of 5%.

For `CCCS(=O)(=O)N1CCN(C2(CNC(=O)c3c(N)cccc3Cl)CCCCCC2)CC1`, the IC50 [1] was 6.3 nM.
